Columns and labels:
[1] = tested on: Fadu (human pharyngeal squamous cell carcinoma); experiment: In vitro inhibitory effect against human tumor cells (MTT); assay type: cell-based; settings: 72 h, 3 days
[2] = tested on: HCT116 (human colorectal cancer); experiment: as above; assay type: cell-based; settings: HCT-116, 72 h, 3 days
[3] = tested on: NCI-H1975 (human non-small cell lung cancer); experiment: as above; assay type: cell-based; settings: NCI-H1975, 72 h, 3 days
[4] = tested on: NCI-N87 (human gastric cancer cell); experiment: as above; assay type: cell-based; settings: NCI-N87, 72 h, 3 days
[5] = tested on: SK-OV-3 (human ovarian cancer); experiment: as above; assay type: cell-based; settings: SK-OV-3, 72 h, SK-OV-3, MTT, 3 days
[6] = tested on: 22RV1 (human prostate cancer); experiment: In vitro inhibitory effect against human tumor cells (SRB); assay type: cell-based; settings: 22Rv1, 72 h, 22RV1, SRB, 3 days
[7] = tested on: A375 (human malignant melanoma); experiment: as above; assay type: cell-based; settings: A-375, 72 h, 3 days
[8] = tested on: HCC827 (human non-small cell lung cancer); experiment: as above; assay type: cell-based; settings: HCC827, 72 h, 3 days
[9] = tested on: HepG2 (human liver cancer cell); experiment: as above; assay type: cell-based; settings: HepG2, 72 h, 3 days
[10] = tested on: MDA-MB-468 (human triple-negative breast cancer); experiment: as above; assay type: cell-based; settings: MDA-MB-468, 72 h, MDA-MB-468, SRB, 3 days
[11] = tested on: SW620 (human colorectal cancer); experiment: as above; assay type: cell-based; settings: SW-620, 72 h, 3 days
[12] = tested on: BxPC-3 (human pancreatic cancer in situ); experiment: In vitro inhibitory effect against human tumor cells (MTT or SRB); assay type: cell-based; settings: BXPC-3, 72 h, BxPC-3, test method printed MTT (head: SRB), 3 days
[13] = tested on: human ovarian cancer SK-OV-3; experiment: Biological Example 6: in vivo xenograft model of human ovarian cancer SK-OV-3; design: species or system Balb/c-nu nude mice; settings: SK-OV-3 xenograft, nude mice, 0.8 mg/kg i.v. qw×3
[14] = tested on: human non-small cell lung cancer NCI-H1975; experiment: Biological Example 8: in vivo xenograft model of human non-small cell lung cancer NCI-H1975; design: species or system Balb/c-nu nude mice; settings: nude mice
[15] = With addition of βGU (1 µg/well)

SMILES: CC[C@H](C)[C@@H]([C@@H](CC(=O)N1CCC[C@H]1[C@H](OC)[C@@H](C)C(=O)N[C@H](C)[C@@H](O)c1ccccc1)OC)N(C)C(=O)[C@@H](NC(=O)[C@H](C(C)C)[N+](C)(C)Cc1ccc(O[C@@H]2O[C@H](C(=O)[O-])[C@@H](O)[C@H](O)[C@H]2O)cc1OCc1cn(CCCCCC(=O)Nc2ccc(-c3ccc(/N=N/c4ccc5c(S(=O)(=O)[O-])cc(S(=O)(=O)[O-])c(N)c5c4O)c(C)c3)cc2C)nn1)C(C)C.[Na+].[Na+] [Example compound 4]
- IC50 [1, 15]: 1.7 nM
- IC50 ([1]; βGU-free): 21 nM
- IC50 [2, 15]: 6.6 nM
- IC50 ([2]; βGU-free): 139 nM
- IC50 [3, 15]: 5.5 nM
- IC50 ([3]; βGU-free): 86 nM
- IC50 [4, 15]: 2.3 nM
- IC50 ([4]; βGU-free): 58 nM
- IC50 [5, 15]: 5.1 nM
- IC50 ([5]; βGU-free): 215 nM
- IC50 [6, 15]: 7 nM
- IC50 ([6]; βGU-free): 115 nM
- IC50 [7, 15]: 5 nM
- IC50 ([7]; βGU-free): 66 nM
- IC50 [8, 15]: 3.4 nM
- IC50 ([8]; βGU-free): 54 nM
- IC50 [9, 15]: 4.7 nM
- IC50 ([9]; βGU-free): 72 nM
- IC50 [10, 15]: 0.96 nM
- IC50 ([10]; βGU-free): 8.8 nM
- IC50 [11, 15]: 3.4 nM
- IC50 ([11]; βGU-free): 67 nM
- IC50 [12, 15]: 1.9 nM
- IC50 ([12]; βGU-free): 44 nM
- Final body weight change (%) [13]: 4.2%
- Maximum body weight change (%) [13]: 4.8, d17%
- Relative volume RTV (x±S.D.) [13]: 0.79±0.79
- T/C (%) [13]: 7.6%
- Tumor inhibition rate (%) [13]: 96.0%
- Tumor weight (g, x±S.D.) [13]: 0.055 ± 0.077 g
- Body weight (g, x±S.D.) End ([13]; End): 24.2 ± 0.9 g
- Body weight (g, x±S.D.) Start ([13]; Start): 23.3 ± 0.8 g
- Final body weight change (%) ([14]; 0.8 mg/kg i.v. qw×3): 4.9%
- Maximum body weight change (%) ([14]; 0.8 mg/kg i.v. qw×3): 4.9, d24%
- Relative volume RTV (x±S.D.) ([14]; 0.8 mg/kg i.v. qw×3): 0.33±0.17
- T/C (%) ([14]; 0.8 mg/kg i.v. qw×3): 2.7%
- Tumor inhibition rate (%) ([14]; 0.8 mg/kg i.v. qw×3): 97.3%
- Tumor weight (g, x±S.D.) ([14]; 0.8 mg/kg i.v. qw×3): 0.072 ± 0.046 g
- Body weight (g, x±S.D.) End 24d ([14]; 0.8 mg/kg i.v. qw×3, End 24d): 26.0 ± 1.1 g
- Body weight (g, x±S.D.) Start ([14]; 0.8 mg/kg i.v. qw×3, Start): 24.8 ± 0.8 g

Source: patent publication EP4818187A1, “COMPOUND AND USE THEREOF” (Ganzhou Hemay Pharmaceutical, Co., Ltd, priority 2023, dated 2025)
